# Reference: patent publication US9604932B2 (priority 2013, dated 2017)
# Key:
# [1] = Plasma pharmacokinetics in sheep (release of R-100 from R-107), LCMS; assay type: in vivo
# Procedure: In the following two experiments, the pharmacokinetic of releasing R-100 from R-107, via R-105 that is the reduced form of R-100, was studied in vivo according to the protocol described herein.
# 100 μl aliquots plasma obtained from R-107-treated sheep or pig were thawed and 200 μl ice-cold ethanol was added to each 100 μl sample to precipitate protein. Samples were then vortexed, placed on ice for 10 minutes, and then spun down at room temperature for 15 minutes. A first 100 μl supernatant from each spun sample was withdrawn and placed in a labeled HPLC micro vial to which 300 μl MPA (LC mobile phase A) was added, and the vial contents were then mixed and submitted for LCMS analysis (kept at 4° C.). The concentration of R-107 was measured in this sample as was the concentration of R105. A second 100 μl supernatant from each spun sample was added to a labelled HPLC micro vial to which 300 μl MPA and 2 μl of Reducing solution (ascorbic acid, 1.0 mg/ml in water) were added. These vials were vortexed; incubated at 50° C. for 1 hour with gentle shaking; and were then cooled to 4° C. and submitted for LCMS analysis. This sample was analyzed for R105, i.e., reduced form of R-100, and the amount measured thus represents the sum of R-100 and R-105 originally present in the plasma. The concentration of R-100 can be calculated from that of the R-105 in the second sample minus that of R-105 in the first sample. However, the concentrations of R-105 were seen to be low (approximately 10% or less of those of R-100) and so the results reported below as R-100 are not corrected for R-105.
# Sets of standards (R-100, R-105 and R-107) were prepared by spiking individually in pig plasma. 100 μl aliquots of these spiked plasma samples, after thawing, were included in the above extraction protocol.
# Analysis method were carried out with an Agilent HPLC stack, with column eluate directed, via a diverter valve, into the source of an AB Sciex ‘Qstar Elite’ Hybrid TOF, high-resolution mass spectrometer. LC column: Phenomenex Kinetex C18 2.6u 100A, 2.1×50 mm. LC mobile phase A: H2O with 0.02% trifluoroacetic acid (TFA), 0.1% formic acid (HOF); Phase B: acetonitrile (ACN) with 0.02% TFA, 0.1% HOF. Mobile phase flow rate=500 μl/min. Injection size: 8 μl, via Agilent 1100 u-WPS autosampler. […]
# [2] = Incubation of R-107 in rat plasma, relative concentrations by HPLC; assay type: in vitro ADME; conditions: R-107 4 mM in rat plasma, 37° C.
# Procedure: In an in vitro study, 2,2,5,5-tetramethyl-3-(nitrooxymethyl)pyrrolidin-1-yl acetate (R-107) was incubated in mouse or rat plasma at 37° C. at a concentration of 4 mM, and the relative concentrations of this compound as well as of its corresponding hydroxylamine, (1-hydroxy-2,2,5,5-tetramethylpyrrolidin-3-yl) methyl nitrate (R-105), and 3-nitratomethyl-2,2,5,5-tetramethylpyrrolidinyloxy (R-100), were measured by HPLC.
# [3] = test system: contrast-induced nephropathy (CIN); assay: Rat model of contrast-induced nephropathy; assay type: in vivo, Sprague-Dawley rats; conditions: protocol only; 10, 20, 40 mg/kg/day BID IV
# Procedure: In order to test the efficacy of R-107 in contrast-induced nephropathy (CIN), a single-blinded study of CIN is carried out in Sprague-Dawley rats (n=10 per group) subjected to dehydration, prostaglandin synthetase inhibition, and an IV challenge of contrast media (CM). A sham injury group is compared to treatment of CM-challenged healthy rats with R-107 (10, 20, 40 mg/kg/day in 5% dextrose, BID IV), N-acetylcysteine (NAC, 100 mg/kg/day in 5% dextrose, BID), or vehicle control (hydroxypropyl cyclodextrin, HPCD) initiated 10 min before CM administration and continued for 48 hours. Rats are evaluated at 48 hours for renal function (blood urea nitrogen to creatinine ratio, BUN:creatinine) and parameters reflecting renal injury, including protein release into the blood (NGAL; kidney injury molecule-1, KIM-1), pro-inflammatory transcription factor expression (cytoplasmic IkBa degradation, nuclear p65 translocation), histologic damage (H&E), mitochondrial swelling (electron microscopy), and nuclear damage and DNA repair (PARP activation and nitrosative stress as noted by poly(ADP-ribose) and 3-nitrotyrosine (3-NT) tissue immunoreactivity). […]
smiles,measurement,setting,value
"CC(=O)ON1C(C)(C)CC(CO[N+](=O)[O-])C1(C)C (stereo not drawn) [R-107, 2,2,5,5-tetramethyl-3-(nitrooxymethyl)pyrrolidin-1-yl acetate]",R-100 in plasma,"[1]; IM neat R-107 25 mg/kg, 48 hrs post dose",not detected
same,R-107 in plasma,"[1]; IV neat R-107 25 mg/kg over 10 minutes, 2 hrs post dose",not detected
same,R-107 in plasma,"[1]; IV neat R-107 25 mg/kg over 10 minutes, 4 hrs post dose",not detected
same,R-107 in plasma,"[1]; IV neat R-107 25 mg/kg over 10 minutes, 6 hrs post dose",not detected
same,R-107 in plasma,"[1]; IV neat R-107 25 mg/kg over 10 minutes, 8 hrs post dose",not detected
same,R-107 in plasma,"[1]; IV neat R-107 25 mg/kg over 10 minutes, 24 hrs post dose",not detected
same,concentration at 0 h,"[1]; plasma, IV neat R-107 25 mg/kg over 10 minutes, 0 hrs post dose",0 ng/mL
same,concentration at 0.1 h,"[1]; plasma, IV neat R-107 25 mg/kg over 10 minutes, 0.1 hrs post dose",5500 ng/mL
same,concentration at 0.4 h,"[1]; plasma, IV neat R-107 25 mg/kg over 10 minutes, 0.4 hrs post dose",1210 ng/mL
same,concentration at 0.5 h,"[1]; plasma, IV neat R-107 25 mg/kg over 10 minutes, 0.5 hrs post dose",200 ng/mL
same,concentration at 1 h,"[1]; plasma, IV neat R-107 25 mg/kg over 10 minutes, 1 hrs post dose",0 ng/mL
same,Relative concentration of R-107,[2]; 0.1 hrs,246
same,Relative concentration of R-107,[2]; 1.5 hrs,18
same,Relative concentration of R-107,[2]; 20 hrs,0
same,Efficacy in rat model of contrast-induced nephropathy,[3],Effective
